Measurements: patent US20240116862A1, “SULFUR-CONTAINING LIPIDS” (THE UNIVERSITY OF BRITISH COLUMBIA, priority 2021, published 2024)

Tests used:
[1] = Physicochemical characteristics of LNPs comprising mRNA and sulfur lipid (dynamic light scattering, Ribogreen entrapment)
Description: (§1) LNP-mRNA systems were prepared as previously described (Kulkarni, J. A. et al. ACS Nano 12, 4787-4795 (2018); and Kulkarni, J. A. et al. Nanoscale 11, 9023-9031 (2019), each of which is incorporated herein by reference). Briefly, lipid components (ionizable cationic lipid, cholesterol, DSPC, and PEG-lipid) at appropriate ratios were dissolved in ethanol to a concentration of 10 mM total lipid. Luciferase encoding mRNA was dissolved in 25 mM sodium acetate pH 4 buffer to achieve an amine-to-phosphate (N/P) ratio of 6. The two solutions were mixed through a T-junction mixer at a total flow rate of 20 mL/min, and a flow rate ratio of 3:1 v/v (corresponding to 15:5 mL/min aqueous:organic phase). The resulting suspension was subsequently dialyzed against PBS pH 7.4. siRNAs were dissolved in 25 mM sodium acetate pH 4 buffer to achieve an amine-to-phosphate (N/P) ratio of 3. The two solutions were mixed through a T-junction mixer at a total flow rate of 20 mL/min, and a flow rate ratio of 3:1 v/v (corresponding to 15:5 mL/min aqueous:organic phase). The resulting suspension was subsequently dialyzed against PBS pH 7.4.
(§2) The hydrodynamic diameter and size distribution of LNP-mRNA and LNP-siRNA systems were analyzed by dynamic light scattering using a Malvern Zetasizer Nano ZS. Data presented as number-weighted average size. Lipid concentrations were measured using the Cholesterol E Total-Cholesterol assay (Wako Diagnostics, Richmond, VA). RNA concentration and entrapment were measured using the Quant-iT Ribogreen RNA assay as described elsewhere (Kulkarni, J. A. et al. ACS Nano 12, 4787-4795 (2018); and Kulkarni, J. A. et al. Nanoscale 11, 9023-9031 (2019)).
LNPs were prepared comprising ionizable cationic sulfur-containing lipid/DSPC/cholesterol/PEG-lipid at molar ratios of 50/10/38.5/1.5 and mRNA (at N/P ratio of 6) as described in the Materials and Methods. The size, PDI and entrapment percentage were determined as set out in the Materials and Methods and the results are shown in Table 2 below. The data are based on n≥3 experiments and values reported are means±SD. […]

[2] = Physicochemical characteristics of lipid nanoparticle (LNP) entrapping siRNA (dynamic light scattering, Ribogreen entrapment, apparent pKa); details: for Size: number-weighted average, mean of n≥3; for Entrapment: siRNA entrapment, LNP sulfur lipid/DSPC/cholesterol/PEG-lipid 50/10/38.5/1.5, N/P 3
Description: as §1, §2
LNPs were prepared composed of ionizable cationic sulfur-containing lipid/DSPC/cholesterol/PEG-lipid at molar ratios of 50/10/38.5/1.5 and siRNA (at N/P ratio of 3) as described in the above Methods and Materials. The data are based on n≥3 experiments and values reported are means±SD.
Compound 13 (MF019; see Example 1) produced siRNA formulations having desirable physicochemical characteristics as shown in Table 3 below. The polydispersity index (PDI) of the resulting nanoparticles was <0.1, with an average LNP size ˜45 nm.

Factor VII = experiment: In vivo analysis of Factor VII (FVII) silencing using LNP-siRNA systems; details: 0.3 mg/kg LNP-siFVII intravenous, mice, 24 h, FIG. 6
Description: FVII knockdown study were performed as previously described.^3 In brief, LNP-siRNA were administered intravenously into WT mice (Charles River Laboratories, Wilmington, MA). Animals were euthanized after 24 h, blood was collected, serum was separated from whole blood using Microtainer Serum Separator tubes (Becton Dickinson, Franklin Lakes, NJ), and the residual serum FVII levels were determined. All procedures were approved by the Animal Care Committee at the University of British Columbia and were performed in accordance with guidelines established by the Canadian Council on Animal Care.
The graph depicts residual Factor VII following intravenous administration of various doses of the LNP-siFVII (see Materials and Methods above).

HepG2 cells = experiment: In vitro analysis of luciferase expression using LNP-mRNA systems; type: cell-based; details: LNP-mRNA (firefly luciferase) at 0.125, 0.25, 0.5 and 1 μg/mL, 24 hours post treatment, versus KC2 LNP
Description: To assess LNP-mRNA efficacy in vitro, HepG2 cells were seeded at 8,000 cells/well in 96-well plates and cultured in DMEM supplemented with 10% FBS. LNP systems entrapping luciferase mRNA were added at various concentrations and luciferase expression was analyzed 24 hours post-treatment using the Steady-Glo Luciferase kit (Promega, Madison, WI).
The in vitro gene expression efficacy of LNP systems entrapping mRNA encoding for firefly luciferase was assessed. HepG2 cells were treated at different doses (0.125, 0.25, 0.5 and 1 μg/mL) using the above LNP-mRNA systems. Luciferase expression was analyzed 24 hours post treatment. Ionizable cationic lipid used was either KC2 (DLin-KC2-DMA) or compound 13 (MF019; see Example 1). In each case, the RLU was higher for compound 13 (MF019) than for KC2.

[3] = LNP sulfur lipid/DSPC/cholesterol/PEG-lipid 50/10/38.5/1.5, siRNA, N/P 3

PDI ([1]; LNP sulfur lipid/DSPC/cholesterol/PEG-lipid 50/10/38.5/1.5, mRNA, N/P 6): 0.054 | Size ([1]; LNP sulfur lipid/DSPC/cholesterol/PEG-lipid 50/10/38.5/1.5, mRNA, N/P 6, number-weighted average, mean of n≥3): 79 nm | Entrapment ([1]; mRNA entrapment, LNP sulfur lipid/DSPC/cholesterol/PEG-lipid 50/10/38.5/1.5, N/P 6): >93% | PDI [2, 3]: 0.028 | pKa [2, 3]: 6.41 | Size [2, 3]: 43 nm | Size ([2]; LNP sulfur lipid/DSPC/cholesterol/PEG-lipid 50/10/38.5/1.5, siRNA, N/P 3, listed as Compound 13): ~45 nm | polydispersity index (PDI) ([2]; LNP with siRNA, N/P 3): < 0.1 | nucleic acid entrapment ([2]; formulated in a lipid nanoparticle, nucleic acid not specified): above 93% | Entrapment [2]: >93% | Entrapment ([2]; listed as Compound 13): > 93%
SMILES: CCCCCSCSCCCCCCCCC(CCCCCCCCSCSCCCCC)OC(=O)CCCN(C)C [compound 13, 6,8,26,28-tetrathiatritriacontan-17-yl 4-(dimethylamino)butanoate]
Factor VII knock down (residual serum FVII) (Factor VII): almost complete knock down | Luciferase expression (RLU) compared with KC2 (HepG2 cells): higher
